Data as given in PubChem BioAssay AID248 (DTP/NCI, 2004).
“And” between values parts separate entries of the source, which are not always exact repeats. Equal values may be shown once. Toxic doses and inconclusive results are not listed. Rule as the data show it: active = T/C of 150% or more; inactive = T/C below 125%.

System: L1210 leukemia ip in BDF1 mice, survival T/C
Assay: NCI In Vivo Anticancer Drug Screen. Data for tumor model L1210 Leukemia (intraperitoneal) in B6D2F1 (BDF1) mice
Settings: endpoint: mean survival time, higher = longer survival
Outline: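 Survival endpoint. Drug-treated group vs vehicle group, expressed as T divided by C. Tumor passaged by transplantation.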

[1] = dose: 25.0 mg/kg/injection, schedule: Q01DX009 (ip), vehicle: saline with Tween-80
[2] = dose: 100.0 mg/kg/injection, schedule: Q01DX001 (ip), vehicle: saline with Tween-80
[3] = dose: 100.0 mg/kg/injection, schedule: Q01DX009 (ip), vehicle: saline with Tween-80
[4] = dose: 100.0 mg/kg/injection, schedule: Q04DX002 (ip), vehicle: saline with Tween-80
[5] = dose: 200.0 mg/kg/injection, schedule: Q01DX001 (ip), vehicle: saline with Tween-80
[6] = dose: 200.0 mg/kg/injection, schedule: Q01DX009 (ip), vehicle: saline with Tween-80
[7] = dose: 200.0 mg/kg/injection, schedule: Q04DX002 (ip), vehicle: saline with Tween-80
[8] = dose: 400.0 mg/kg/injection, schedule: Q01DX001 (ip), vehicle: saline with Tween-80
[9] = dose: 400.0 mg/kg/injection, schedule: Q01DX009 (ip), vehicle: saline with Tween-80
[10] = dose: 400.0 mg/kg/injection, schedule: Q04DX002 (ip), vehicle: saline with Tween-80
[11] = dose: 50.0 mg/kg/injection, schedule: Q01DX009 (ip), vehicle: saline with Tween-80
[12] = dose: 100.0 mg/kg/injection, schedule: Q01DX009 (ip), vehicle: Klucel (hydroxypropylcellulose) (HPC)
[13] = dose: 200.0 mg/kg/injection, schedule: Q01DX009 (ip), vehicle: Klucel (hydroxypropylcellulose) (HPC)
[14] = dose: 400.0 mg/kg/injection, schedule: Q01DX009 (ip), vehicle: Klucel (hydroxypropylcellulose) (HPC)
[15] = dose: 100.0 mg/kg/injection, schedule: Q04DX003 (ip), vehicle: saline
[16] = dose: 200.0 mg/kg/injection, schedule: Q04DX003 (ip), vehicle: saline
[17] = dose: 400.0 mg/kg/injection, schedule: Q04DX003 (ip), vehicle: saline
[18] = dose: 100.0 mg/kg/injection, schedule: Q04DX002 (ip), vehicle: saline
[19] = dose: 200.0 mg/kg/injection, schedule: Q04DX002 (ip), vehicle: saline
[20] = dose: 400.0 mg/kg/injection, schedule: Q04DX002 (ip), vehicle: saline
[21] = dose: 100.0 mg/kg/injection, schedule: Q04DX003 (ip), vehicle: saline with Tween-80
[22] = dose: 200.0 mg/kg/injection, schedule: Q04DX003 (ip), vehicle: saline with Tween-80
[23] = dose: 400.0 mg/kg/injection, schedule: Q04DX003 (ip), vehicle: saline with Tween-80
[24] = dose: 100.0 mg/kg/injection, schedule: Q01DX001 (ip), vehicle: carboxymethylcellulose (CMC)
[25] = dose: 200.0 mg/kg/injection, schedule: Q01DX001 (ip), vehicle: carboxymethylcellulose (CMC)
[26] = dose: 100.0 mg/kg/injection, schedule: Q01DX009 (ip), vehicle: saline
[27] = dose: 200.0 mg/kg/injection, schedule: Q01DX009 (ip), vehicle: saline
[28] = dose: 400.0 mg/kg/injection, schedule: Q01DX009 (ip), vehicle: saline
[29] = dose: 100.0 mg/kg/injection, schedule: Q01DX001 (ip), vehicle: saline
[30] = dose: 200.0 mg/kg/injection, schedule: Q01DX001 (ip), vehicle: saline

Measured: T/C

CCOC(=O)C(OCc1ccccc1)(C(=O)Cl)C(C)C (configuration not stated)
inactive: dose: 6.25 mg/kg/injection, schedule: Q01DX009 (ip), vehicle: saline with Tween-80 98 % of control | dose: 6.25 mg/kg/injection, schedule: Q04DX003 (ip), vehicle: saline 93 % of control | dose: 12.5 mg/kg/injection, schedule: Q01DX009 (ip), vehicle: saline with Tween-80 100 % of control | dose: 12.5 mg/kg/injection, schedule: Q04DX003 (ip), vehicle: saline 97 % of control | [1] 98 % of control | dose: 25.0 mg/kg/injection, schedule: Q04DX003 (ip), vehicle: saline 92 % of control | dose: 50.0 mg/kg/injection, schedule: Q04DX003 (ip), vehicle: saline 103 % of control

C=CCc1ccc(OC(=O)Nc2cc(Cl)ccc2OC)c(OC)c1
inactive: [2] 102 % of control | [3] 90 % of control | [4] 101 % of control and 91 % of control | [5] 90 % of control | [6] 96 % of control | [7] 95 % of control | [8] 90 % of control | [9] 95 % of control | [10] 87 % of control and 90 % of control

CCCN1CC2=C1C(=O)c1ccccc1C2=O
inactive: dose: 100.0 mg/kg/injection, schedule: Q01DX001 (ip), vehicle: other 97 % of control | dose: 200.0 mg/kg/injection, schedule: Q01DX001 (ip), vehicle: other 93 % of control | dose: 400.0 mg/kg/injection, schedule: Q01DX001 (ip), vehicle: other 87 % of control

CCCCOCN1C(=O)N(COCCCC)C(=O)C(CC)(c2ccccc2)C1=O
inactive: [3] 97 % of control | [6] 94 % of control | [9] 87 % of control

OC(Cc1ccc2ccccc2n1)C(Cl)(Cl)Cl (configuration not stated)
inactive: [1] 103 % of control | [11] 91 % of control | [12] 101 % of control | [3] 101 % of control | [13] 93 % of control | [6] 89 % of control | [14] 101 % of control | [9] 114 % of control

CN(C)CCOC(=O)C1C2CC3OC(=O)C1C3C2 (configuration not stated)
inactive: [15] 96 % of control | [16] 104 % of control | [17] 104 % of control

CC(=O)OCCOc1ccc(Cl)cc1
inactive: [18] 107 % of control | [19] 96 % of control | [20] 107 % of control

Clc1cccc(Cl)c1Br
inactive: [12] 100 % of control | [21] 108 % of control | [13] 100 % of control | [22] 104 % of control | [14] 105 % of control | [23] 98 % of control

N#Cc1cc(Cl)c(OCc2ccccc2)c(Cl)c1
inactive: dose: 50.0 mg/kg/injection, schedule: Q01DX001 (ip), vehicle: saline with Tween-80 102 % of control | [2] 104 % of control | [5] 95 % of control

Clc1ccccc1C(N1CCCCC1)C(Cl)(Cl)Cl (configuration not stated)
inactive: [18] 92 % of control | [19] 90 % of control | [20] 92 % of control

CN(C)CCN(Cc1ccccc1)c1ccccn1
inactive: dose: 75.0 mg/kg/injection, schedule: Q01DX001 (ip), vehicle: carboxymethylcellulose (CMC) 100 % of control | dose: 150.0 mg/kg/injection, schedule: Q01DX001 (ip), vehicle: carboxymethylcellulose (CMC) 95 % of control

CCCCCCCCCCCCN1CCCN(CCCCCCCCCCCC)CC1
inactive: [2] 100 % of control | [4] 97 % of control and 106 % of control | [21] 94 % of control and 90 % of control | [5] 98 % of control | [7] 97 % of control and 106 % of control | [22] 103 % of control and 87 % of control | [8] 107 % of control | [10] 101 % of control and 92 % of control | [23] 90 % of control

COc1ccccc1NC(=O)Nc1ccccc1Cl
inactive: [3] 88 % of control | [21] 89 % of control | [6] 112 % of control | [22] 92 % of control | [9] 92 % of control | [23] 89 % of control

CCC12C=CCN3CCC4(C(=C(C(=O)OC)C1)Nc1cc(OC)ccc14)C32 (configuration not stated)
inactive: [18] 110 % of control | [19] 121 % of control

Fc1c(F)c(F)c(Oc2c(F)c(F)c(P(c3c(F)c(F)c(Oc4c(F)c(F)c(F)c(F)c4F)c(F)c3F)c3c(F)c(F)c(Oc4c(F)c(F)c(F)c(F)c4F)c(F)c3F)c(F)c2F)c(F)c1F
inactive: dose: 75.0 mg/kg/injection, schedule: Q04DX003 (ip), vehicle: Klucel (hydroxypropylcellulose) (HPC) 104 % of control | dose: 150.0 mg/kg/injection, schedule: Q04DX003 (ip), vehicle: Klucel (hydroxypropylcellulose) (HPC) 91 % of control | dose: 300.0 mg/kg/injection, schedule: Q04DX003 (ip), vehicle: Klucel (hydroxypropylcellulose) (HPC) 90 % of control

c1ccc2c(c1)Cc1cc(CN3CCOCC3)ccc1-2
inactive: dose: 50.0 mg/kg/injection, schedule: Q01DX001 (ip), vehicle: carboxymethylcellulose (CMC) 92 % of control | [24] 100 % of control | [25] 94 % of control | dose: 400.0 mg/kg/injection, schedule: Q01DX001 (ip), vehicle: carboxymethylcellulose (CMC) 94 % of control

O=C(O)C12CCC(CC1Br)C2 (configuration not stated)
inactive: dose: 75.0 mg/kg/injection, schedule: Q01DX001 (ip), vehicle: acetone 105 % of control | [26] 102 % of control | dose: 150.0 mg/kg/injection, schedule: Q01DX001 (ip), vehicle: acetone 106 % of control | [27] 110 % of control | dose: 300.0 mg/kg/injection, schedule: Q01DX001 (ip), vehicle: acetone 102 % of control | [28] 102 % of control

CCN(CC)CCOc1cc(C)ccc1C(C)C
inactive: [1] 93 % of control | dose: 50.0 mg/kg/injection, schedule: Q01DX009 (ip), vehicle: Klucel (hydroxypropylcellulose) (HPC) 102 % of control | [11] 93 % of control | dose: 50.0 mg/kg/injection, schedule: Q04DX003 (ip), vehicle: Klucel (hydroxypropylcellulose) (HPC) 100 % of control | dose: 50.0 mg/kg/injection, schedule: Q04DX003 (ip), vehicle: saline with Tween-80 100 % of control | [29] 98 % of control | [12] 103 % of control | [3] 113 % of control | dose: 100.0 mg/kg/injection, schedule: Q04DX003 (ip), vehicle: Klucel (hydroxypropylcellulose) (HPC) 96 % of control | [21] 95 % of control | [30] 113 % of control

O=C1C=C2C=CCCC2CC1 (configuration not stated)
inactive: dose: 75.0 mg/kg/injection, schedule: Q01DX001 (ip), vehicle: other 104 % of control | dose: 150.0 mg/kg/injection, schedule: Q01DX001 (ip), vehicle: other 98 % of control | dose: 300.0 mg/kg/injection, schedule: Q01DX001 (ip), vehicle: other 114 % of control

CCOC(=O)c1ccc(N(N=O)C(C)C)cc1
inactive: [4] 101 % of control | [7] 86 % of control | [10] 97 % of control

C=CC1CN2CCC1CC2C(=O)c1ccnc2ccccc12 (configuration not stated)
inactive: dose: 50.0 mg/kg/injection, schedule: Q01DX001 (ip), vehicle: saline 101 % of control | [29] 104 % of control | [30] 106 % of control | dose: 400.0 mg/kg/injection, schedule: Q01DX001 (ip), vehicle: saline 98 % of control

CCOc1cc(N)nc(N)c1[N+](=O)[O-]
inactive: [24] 95 % of control | [25] 87 % of control

c1ccc(Nc2ccc(Nc3ccccc3)cc2)cc1
inactive: dose: 100.0 mg/kg/injection, schedule: Q01DX001 (ip), vehicle: Klucel (hydroxypropylcellulose) (HPC) 94 % of control | [26] 113 % of control | [15] 86 % of control | dose: 200.0 mg/kg/injection, schedule: Q01DX001 (ip), vehicle: Klucel (hydroxypropylcellulose) (HPC) 94 % of control | [27] 110 % of control | [16] 93 % of control | dose: 400.0 mg/kg/injection, schedule: Q01DX001 (ip), vehicle: Klucel (hydroxypropylcellulose) (HPC) 91 % of control | [28] 110 % of control | [17] 95 % of control
